Organism: Rattus norvegicus
Type: toxicity, organism-based, Sprague-Dawley
Conditions: in vivo, po, route oral GAVAGE, vehicle 100 % SALINE; for ABSOLUTE EOSINOPHIL / ABSOLUTE LYMPHOCYTE / ABSOLUTE MONOCYTE / ABSOLUTE SEGMENTED NEUTROPHIL / BASOPHIL / EOSINOPHIL / ERYTHROCYTE COUNT / HEMATOCRIT / HEMOGLOBIN / LEUKOCYTE COUNT / LYMPHOCYTE / MEAN CORPUSCULAR HEMOGLOBIN / MEAN CORPUSCULAR HEMOGLOBIN CONCENTRATION / MEAN CORPUSCULAR VOLUME / MONOCYTE / NEUTROPHIL / NUCLEATED RED BLOOD CELLS / PLATELET COUNT: tissue Blood; for ALANINE AMINOTRANSFERASE / ALBUMIN / ALKALINE PHOSPHATASE / ASPARTATE AMINOTRANSFERASE / BLOOD UREA NITROGEN / CARBON DIOXIDE / CHLORIDE / CHOLESTEROL / CREATINE PHOSPHOKINASE / CREATININE / GLUCOSE / LACTATE DEHYDROGENASE / LIPASE / PHOSPHORUS / POTASSIUM / SODIUM / TOTAL BILIRUBIN / TOTAL PROTEIN / URIC ACID: tissue Plasma
[1] = 3000 mg/kg, 24 h, dose level Low, time 1 day
[2] = 6000 mg/kg, 6 h, dose level High, time 0.25 day
[3] = 6000 mg/kg, 24 h, dose level High, time 1 day

Description: DrugMatrix - Regimen: Single

CCO [ALCOHOL]
ABSOLUTE EOSINOPHIL [1]: 30.5 CELLS/uL | ABSOLUTE LYMPHOCYTE [1]: 9902 CELLS/uL | ABSOLUTE MONOCYTE [1]: 124.33 CELLS/uL | ABSOLUTE SEGMENTED NEUTROPHIL [1]: 1059.83 CELLS/uL | BASOPHIL [1]: 0% | EOSINOPHIL [1]: 0.17% | ERYTHROCYTE COUNT [1]: 5.39 x10E6/uL | HEMATOCRIT [1]: 34.67% | HEMOGLOBIN [1]: 13.7 G/DL | LEUKOCYTE COUNT [1]: 11.12 x10E3/uL | LYMPHOCYTE [1]: 88.17% | MEAN CORPUSCULAR HEMOGLOBIN [1]: 25.42 pg | MEAN CORPUSCULAR HEMOGLOBIN CONCENTRATION [1]: 39.57 G/DL | MEAN CORPUSCULAR VOLUME [1]: 64.33 fL | MONOCYTE [1]: 1.17% | NEUTROPHIL [1]: 10.5% | NUCLEATED RED BLOOD CELLS [1]: 0 /100WBC | PLATELET COUNT [1]: 1071.33 x10E3/uL | ALANINE AMINOTRANSFERASE [1]: 70.67 u/L | ALBUMIN [1]: 4.18 G/DL | ALKALINE PHOSPHATASE [1]: 267 u/L | ASPARTATE AMINOTRANSFERASE [1]: 95.33 u/L | BLOOD UREA NITROGEN [1]: 11.67 mg/dL | CARBON DIOXIDE [1]: 35.67 mmol/L | CHLORIDE [1]: 99.5 MEQ/L | CHOLESTEROL [1]: 80.17 mg/dL | CREATINE PHOSPHOKINASE [1]: 199.5 u/L | CREATININE [1]: 0.21 mg/dL | GLUCOSE [1]: 141 mg/dL | LACTATE DEHYDROGENASE [1]: 59.67 u/L | LIPASE [1]: 9.67 u/L | PHOSPHORUS [1]: 10.12 mg/dL | POTASSIUM [1]: 5.58 MEQ/L | SODIUM [1]: 145.6 MEQ/L | TOTAL BILIRUBIN [1]: 0.17 mg/dL | TOTAL PROTEIN [1]: 6.1 G/DL | URIC ACID [1]: 0.45 mg/dL | ABSOLUTE EOSINOPHIL [2]: 29.17 CELLS/uL | ABSOLUTE LYMPHOCYTE [2]: 14165.5 CELLS/uL | ABSOLUTE MONOCYTE [2]: 257.5 CELLS/uL | ABSOLUTE SEGMENTED NEUTROPHIL [2]: 3164.5 CELLS/uL | BASOPHIL [2]: 0% | EOSINOPHIL [2]: 0.17% | ERYTHROCYTE COUNT [2]: 5.58 x10E6/uL | HEMATOCRIT [2]: 37.53% | HEMOGLOBIN [2]: 13.8 G/DL | LEUKOCYTE COUNT [2]: 17.62 x10E3/uL | LYMPHOCYTE [2]: 81.33% | MEAN CORPUSCULAR HEMOGLOBIN [2]: 24.78 pg | MEAN CORPUSCULAR HEMOGLOBIN CONCENTRATION [2]: 36.83 G/DL | MEAN CORPUSCULAR VOLUME [2]: 67.33 fL | MONOCYTE [2]: 1.33% | NEUTROPHIL [2]: 17.17% | NUCLEATED RED BLOOD CELLS [2]: 0 /100WBC | PLATELET COUNT [2]: 1061.5 x10E3/uL | ALANINE AMINOTRANSFERASE [2]: 46 u/L | ALBUMIN [2]: 3.8 G/DL | ALKALINE PHOSPHATASE [2]: 242.17 u/L | ASPARTATE AMINOTRANSFERASE [2]: 95.83 u/L | BLOOD UREA NITROGEN [2]: 12.33 mg/dL | CARBON DIOXIDE [2]: 17.17 mmol/L | CHLORIDE [2]: 105.33 MEQ/L | CHOLESTEROL [2]: 77 mg/dL | CREATINE PHOSPHOKINASE [2]: 431.5 u/L | CREATININE [2]: 0.13 mg/dL | GLUCOSE [2]: 194.5 mg/dL | LACTATE DEHYDROGENASE [2]: 355.33 u/L | LIPASE [2]: 9.33 u/L | PHOSPHORUS [2]: 16.82 mg/dL | POTASSIUM [2]: 5.94 MEQ/L | SODIUM [2]: 144.57 MEQ/L | TOTAL BILIRUBIN [2]: 0.0667 mg/dL | TOTAL PROTEIN [2]: 5.12 G/DL | URIC ACID [2]: 2.45 mg/dL | ABSOLUTE EOSINOPHIL [3]: 0 CELLS/uL | ABSOLUTE LYMPHOCYTE [3]: 13674.83 CELLS/uL | ABSOLUTE MONOCYTE [3]: 258.33 CELLS/uL | ABSOLUTE SEGMENTED NEUTROPHIL [3]: 983.5 CELLS/uL | BASOPHIL [3]: 0% | EOSINOPHIL [3]: 0% | ERYTHROCYTE COUNT [3]: 5.27 x10E6/uL | HEMATOCRIT [3]: 34.4% | HEMOGLOBIN [3]: 13.68 G/DL | LEUKOCYTE COUNT [3]: 14.92 x10E3/uL | LYMPHOCYTE [3]: 91.33% | MEAN CORPUSCULAR HEMOGLOBIN [3]: 26.03 pg | MEAN CORPUSCULAR HEMOGLOBIN CONCENTRATION [3]: 39.82 G/DL | MEAN CORPUSCULAR VOLUME [3]: 65.33 fL | MONOCYTE [3]: 1.83% | NEUTROPHIL [3]: 6.83% | NUCLEATED RED BLOOD CELLS [3]: 0 /100WBC | PLATELET COUNT [3]: 1124.67 x10E3/uL | ALANINE AMINOTRANSFERASE [3]: 81 u/L | ALBUMIN [3]: 3.95 G/DL | ALKALINE PHOSPHATASE [3]: 284.5 u/L | ASPARTATE AMINOTRANSFERASE [3]: 90.67 u/L | BLOOD UREA NITROGEN [3]: 11.5 mg/dL | CARBON DIOXIDE [3]: 32.5 mmol/L | CHLORIDE [3]: 100.67 MEQ/L | CHOLESTEROL [3]: 68.83 mg/dL | CREATINE PHOSPHOKINASE [3]: 207.83 u/L | CREATININE [3]: 0.3 mg/dL | GLUCOSE [3]: 144 mg/dL | LACTATE DEHYDROGENASE [3]: 74 u/L | LIPASE [3]: 9 u/L | PHOSPHORUS [3]: 10.7 mg/dL | POTASSIUM [3]: 5.34 MEQ/L | SODIUM [3]: 145 MEQ/L | TOTAL BILIRUBIN [3]: 0.15 mg/dL | TOTAL PROTEIN [3]: 5.78 G/DL | URIC ACID [3]: 0.53 mg/dL
